Entries after “also recorded” stand apart in the source; their conditions may differ.
Columns and labels:
[1] = Static water contact angle of UV-cured phosphonium films with alumina microparticles; type: physicochemical
Experimental: Solution ^1H, ^19F{^1H} and ^31P{^1H} NMR spectra were recorded on a Varian INOVA 400 MHz spectrometer (^1H; 400.09 MHz, ^31P; 161.82 MHz, ^19F; 376.15 MHz). All samples for ^1H NMR spectroscopy were referenced to the residual protons in the deuterated solvents (^1H: chloroform-d 7.26; acetone-d6 2.05). ^31P{^1H} and ^19F{^1H} NMR spectroscopic chemical shifts were reported relative to external standards (85% H3PO4: 0.00 ppm and CF3C6H5: −63.9 ppm). Mass spectrometry (MS) measurements were recorded in positive and negative ion modes using an electrospray ionization (ESI) Micromass LCT spectrometer. Infrared spectra were recorded using a Bruker Tensor 27 spectrometer from Bruker Optics Inc. Samples were measured by attenuated total reflectance (ATR) infrared spectroscopy, using a zinc selenide crystal. Melting points were determined using a Gallenkamp Variable Heater in air. Scanning electron microscope images of the surfaces were obtained using a Hitachi S-4500 field emission instrument, operated at an electron beam voltage of 10 kV equipped with a Quartz Xone EDX system. AFM was performed on a Park Systems XE-100 in air with a relative humidity of ˜40%. […] Water contact angles were measured on a Kruss DSA 100 with DSA drop shape analysis software. Using an automated dispensing system, static 5 μL droplets of distilled water were deposited in different areas upon the surface. The contact angles were measured on the left and right side of each drop on at least ten droplets, resulting in a minimum of twenty angles per film. The reported contact angle is the average of all measurements.
The general procedure for film preparation and curing was as follows: the chosen phosphonium salt (95%) and 1-hydroxycyclohexylphenylketone (CPK, 5%) were dissolved in acetone. Microparticles (when included) were then added to the solution, the resulting mixture insonated in a sonic bath (Elasmonic E 60H, 100 Watts) for 10 minutes and then applied to pre-treated polyester sheets (DuPont) with a pipette. A #10 wire Meyer rod (Gardco) was used to spread the mixture evenly across the polyester substrate, producing a wet thickness of approximately 25 μm. A UV-curing conveyor (UV Process Supply) was set to allow a time exposure of ˜3 s (UV-light irradiance over this time frame was measured at 760 mJ/cm^2). The substrate with the uncured film was taped to a metal sheet and passed through the UV-conveyor.

[2] = Solubility/miscibility tests; type: physicochemical
Experimental: Approximately 5-10 mg of compound was added to a test tube followed by the addition of 1.5 mL of solvent followed by 5 seconds of gentle stirring. If dissolution was not observed immediately, the mixture was further stirred and sonicated for 30 seconds. Material was deemed soluble if the resulting solution was free of particulate and haze, determined by visual inspection. […] If solutions remained hazy, they were referred to as emulsion mixtures.

[3] = Water contact angle of UV-cured HDDA films containing HFPPS; type: physicochemical; conditions: UV-cured film
Experimental: Nuclear Magnetic Resonance (NMR) spectroscopy was conducted on a Varian INOVA 400 MHz spectrometer (^1H, 400.09 MHz, ^31P{^1H} 161.82 MHz, ^19F, 376.15 MHz). All ^1H spectra were referenced relative to tetramethyl silane (CDCl3; ^1H δH=7.26 ppm and CO(CD3)2; ^1H δH=2.04). The chemical shifts for ^31P{H} NMR spectroscopy were referenced using an external standard (85% H3PO4; δP=0). The chemical shifts for ^19F{^1H} NMR spectroscopy were also referenced using an external standard (trifluorotoluene; δF=−63.9 ppm). Infrared spectra were recorded using a Bruker Tensor 27 spectrometer using attenuated total reflectance mode (ATR) using a ZnSe crystal. Sonication of the UV curable formulations was conducted in an E60H Elmasonic sonicator at frequency of 37 kHz using an effective power of 100 W. Deposition of the formulation was performed using a 25-micron Meyer Rod purchased from Gardco on microscope slides purchased from Technologist Choice unless otherwise noted. UV curing was performed using a modified UV curing system purchased from UV Process and Supply Inc. with a mercury bulb. Samples were irradiated with an energy density of 1956 mJ/cm^2 and an irradiance of 1383 mW/cm^2. Water contact angles (WCA) were measured using a Kruss DSA100 Drop Shape Analyzer and analyzed using Drop Shape Analysis. Thermal degradation was determined using Thermal Gravimetric Analysis (TGA) on a Q600 SDT TA instrument. A sample of 5-15 mg was placed in an aluminum cup and heated at a rate of 10° C./min from room temperature to 600° C. under nitrogen atmosphere (100 mL/min). Glass transition temperatures were determined using Differential Scanning calorimetry (DSC) on a DSC Q20 TA instrument. A sample of approximately 10 mg was placed in an aluminum Tzero pan and underwent a heat/cool/heat profile at 10° C./min under nitrogen atmosphere (100 mL/min). Data was acquired from the final heat cycle of the heat/cool/heat profile. Melting points of all HFPS were determined using a Gallenkamp Variable Heater in air. Mass spectrometry was recorded in both positive and negative ion modes using electrospray ionization (ESI) Micromass LCT spectrometer. Elemental analysis (EA) was performed by the Elemental Analysis Laboratory at the Université de Montreal. Time-of-fight Secondary Ion Mass Spectrometry (TOF-SIMS) measurements were performed using an ION-TOF (Gmbh) TOF-SIMS IV equipped with a Bi cluster liquid metal ion source. A 25 keV Bi3^+ cluster primary pulsed ion beam (10 kHz, pulse width 20 ns) was used to bombard the surface to generate secondary ions. The positive or negative secondary ions were extracted from the sample surface, mass separated and detected via a reflectron-type time-of-flight analyser. Depth profiles were obtained by repeating the following cycle: sputtering an area of 500 μm×500 μm on the sample surface with a 3 keV Cs^+ ion beam for 0.5 s followed by, with a delay of 2 s, collecting mass spectra at 128×128 pixels with the Bi3^+ ion beam over an area of 245 μm×245 μm in the center of the sputtered area.
A desired amount of photoinitiator, crosslinker, and phosphonium salt were weighed and combined in screw top vials. The mixture was then insonated at 45° C. for 20 min until the solutions were free of particulate and haze. After cooling to room temperature, the solutions were cast on glass slides and irradiated with UV light three times.

[4] = tested on: Bacteria; assay: Antimicrobial efficacy of [4]Cl films (same procedure, bacterium not given); type: cell-based
Experimental: A desired amount of 2-hydrox-2-methy-1-phenyl-propanone (5 wt %), diacrylate crosslinker (EB 130, a cyclic aliphatic diacrylate) and the acrylate-appended phosphonium salt were weighed and combined in screw top vials. The mixture was then insonated at 45° C. for 20 min until the solutions were free of particulate and haze. After cooling to room temperature, the solutions were cast on polyester films and irradiated with UV light three times. Leached films were treated with H2O (Milli-Q) in a wrist action shaker for 4 hours, followed by washing with H2O (2×10 mL) and air drying. Both leached and unleached films were subjected to the antibacterial test (below).
The antibacterial activities of the charged surfaces against Gram-negative bacteria Escherichia coli […] were studied using the antibacterial drop-test. E. coli precultured in 15 mL of nutrient broth (Difco™ BD) at 37° C. for 24 h, was washed by centrifuging at 4000 rpm for 10 min. After removing the supernatant, the cells were washed with phosphate buffered saline (PBS) twice and re-suspended and diluted to approximately 10^6 colony forming units (CFU)/mL in PBS solution. The samples were placed in sterilized Petri dishes. 100 μL of PBS solution with bacteria was added dropwise onto sterilized surfaces until completely covered. The petri dishes were sealed and placed in an incubator at 37° C. with the humidity 46%. After 4 hr, the bacteria were washed from the surface of the sample by using 10 mL PBS in the sterilized Petri dish. From this solution, 100 μL was spread onto solid plate count agar (Difco™ BD). After incubation for 24 h at 37° C., the number of surviving bacterial colonies on the Petri dishes were counted. The results after multiplication with the dilution factor were expressed as CFU per mL. The above experiments were carried out in triplicate for each sample. The percentage of killed bacteria was calculated as [(CFU of initial bacterial suspension−CFUs following surface contact)/CFU of initial bacterial suspension]×100.
As phosphonium content in the films increased, both an increase in surface charge density and bacterial activity was observed. […] The pronounced difference in films containing 25 and 30 wt % is believed to be due to differences in surface energy between EB 130 and the phosphonium salt. The non-polar nature of the crosslinking agent has lower surface energy than that of the phosphonium salt. […] Upon the addition of sufficient phosphonium salt, cations became present at the surface, as detected by the fluorescein dye experiment and exemplified by the increase in antibacterial efficacy. […] Films were prepared and analyzed following the same procedure.

[5] = Density of surface phosphonium cations by UV-vis (fluorescein dye); type: physicochemical
Experimental: Characterization by FTIR-ATR spectroscopy confirmed the conversion of acrylate functionality post polymerization. Percent cure was determined using a literature procedure. The intensity of the acrylate vibration at 810 cm^−1 was compared to the C═O vibration at 1750 cm^−1 both before and after irradiation. […] The density of surface phosphonium cations was determined by UV-vis spectroscopy as described in a literature procedure.
Characterization by FTIR-ATR spectroscopy confirmed the conversion of acrylate functionality post polymerization. […] The density of surface phosphonium cations was determined by UV-vis spectroscopy as described in a literature procedure^23. […] This assumes a 1:1 ratio of positive and negative charge on the surface.
Before deposition of [Au25L18]^−, the number of accessible charges on the PPF was quantified. A known protocol utilizing fluorescein dye was employed to determine the value for the above system and to relate this quantity back to the percentage of phosphonium monomers that were included in the original formulation.^23 This procedure is commonly used as a characterization technique for films containing surface-bound quaternary salts. […] At 30 wt %, a dramatic increase in the number of quaternary charges was observed (1.5×10^15 cations/cm^2). Increasing the salt content to 37.5 and 47.5 wt % yielded surfaces with 8.2×10^15 and 1.4×10^16 cations/cm^2, respectively. […] Use of low melting phosphonium salts permits formation of a formulation having low viscosity despite the high ion content, allowing for ease of handling and deposition. Use of high melting point organic salts in a similar fashion generates formulations with relatively high viscosities or significant solubility issues, which manifest themselves in poor films. Advantages of the phosphonium-based acrylate monomer in the fabrication of the charged surfaces can thus be seen.

[6] = film with 50 w % Al2O3 microparticles (±3)
[7] = particle-free UV-cured film of the salt with 5 w % CPK on polyester

SMILES	WCA [1, 6]	WCA [1, 7]	Solubility (in words) ([2]; chloroform)	Solubility (in words) ([2]; dichloromethane)	Water contact angle ([3]; 0.1 wt % in HDDA)	Water contact angle ([3]; 0.5 wt % in HDDA)	Water contact angle ([3]; 1 wt % in HDDA)	Water contact angle ([3]; 1.5 wt % in HDDA)	other results
C=Cc1ccc(C[P+](CCC(F)(F)C(F)(F)C(F)(F)C(F)(F)F)(CCC(F)(F)C(F)(F)C(F)(F)C(F)(F)F)CC(C)CC(C)(C)C)cc1.[Cl-] (stereo not drawn) [[1]Cl]	88 °	≈ 80 °; also recorded: ≈ 90 °	–	–	–	–	–	–	–
C=Cc1ccc(C[P+](CCC(F)(F)C(F)(F)C(F)(F)C(F)(F)F)(CCC(F)(F)C(F)(F)C(F)(F)C(F)(F)F)CC(C)CC(C)(C)C)cc1.O=S(=O)([N-]S(=O)(=O)C(F)(F)F)C(F)(F)F (stereo not drawn) [[1]NTf2]	–	–	soluble	soluble	82 °	84 °	87 °	87 °	–
C=Cc1ccc(C[P+](CCC(F)(F)C(F)(F)C(F)(F)C(F)(F)F)(CCC(F)(F)C(F)(F)C(F)(F)C(F)(F)F)CCC(F)(F)C(F)(F)C(F)(F)C(F)(F)F)cc1.[Cl-] [[2]Cl]	–	≈ 80 °	–	–	–	–	–	–	–
C=Cc1ccc(C[P+](CCC(F)(F)C(F)(F)C(F)(F)C(F)(F)F)(CCC(F)(F)C(F)(F)C(F)(F)C(F)(F)F)CCC(F)(F)C(F)(F)C(F)(F)C(F)(F)F)cc1.O=S(=O)([N-]S(=O)(=O)C(F)(F)F)C(F)(F)F [[2]NTf2]	141 °	≈ 90 °	–	–	89 °	91 °	92 °	92 °	Water contact angle ([3]; 0.05 wt % in HDDA): 80 °
C=Cc1ccc(C[P+](CCC(F)(F)C(F)(F)C(F)(F)C(F)(F)C(F)(F)C(F)(F)F)(CCC(F)(F)C(F)(F)C(F)(F)C(F)(F)C(F)(F)C(F)(F)F)CC(C)CC(C)(C)C)cc1.[Cl-] (stereo not drawn) [[3]Cl]	–	–	soluble	soluble	–	–	–	–	–
C=CC(=O)OCCC[P+](CCCC)(CCCC)CCCC.[Cl-] [[4]Cl, (3-(acryloyloxy)propyl)tributylphosphonium chloride]	–	–	–	–	–	–	–	–	% Bacteria killed ([4]; 15% [4]Cl film): 18%; % Bacteria killed ([4]; 20% [4]Cl film): 18%; % Bacteria killed ([4]; 25% [4]Cl film): 71%; % Bacteria killed ([4]; 30% [4]Cl film): 71%; % Bacteria killed ([4]; 37.5% [4]Cl film): 75%; % Bacteria killed ([4]; 47.5% [4]Cl film): 100%; Charge/Unit area ([5]; 15% [4]Cl film): 0 ×10^x Y^+/cm^2; Charge/Unit area ([5]; 20% [4]Cl film): 5.6 × 10^14 ×10^x Y^+/cm^2; Charge/Unit area ([5]; 25% [4]Cl film): 3.46 × 10^15 ×10^x Y^+/cm^2; Charge/Unit area ([5]; 30% [4]Cl film): 9.07 × 10^15 ×10^x Y^+/cm^2; Charge/Unit area ([5]; 37.5% [4]Cl film): 1.24 × 10^16 ×10^x Y^+/cm^2; Charge/Unit area ([5]; 47.5% [4]Cl film): 2.54 × 10^16 ×10^x Y^+/cm^2
